Measured values reported in US20150118165A1, “USE OF CYCLOHEXANOL ETHERS HAVING ANTIMICROBIAL PROPERTIES” (Merck Patent GmbH, priority 2012, published 2015).

Columns and labels:
Echerichia coli = assay: Antimicrobial action, microbe count (procedure as Example 1); format: cell-based, Escherichia coli; conditions: for Δlog: t24 h vs t0
Protocol: (§1) For sample preparation, the substance I-2 being investigated is homogeneously dispersed in an amount of 1.0% in a water/ethanol mixture (12% of ethanol) (=sample). A suspension of Staphylococcus epidermidis (ATCC 12228) having an optical density of 1.0 in CASO broth (Merck 1.05459) is diluted 1:10000 with CASO broth. 500 μl of sample are added to 500 μl of microorganism suspension, and the mixture is incubated at 35° C. for 24 h or 48 h. After the incubation, the test batches are diluted to −6 in 10 unit steps, and 0.1 ml of each is plated-out on CASO agar (Merck 1.05458) and incubated at 35° C. for 24 h.
(§2) In order to determine the initial microbe count, 0.1 ml of the bacteria suspension used are plated-out on CASO agar (Merck 1.05458) and incubated at 35° C. for 24 h.
(§3) The colonies are subsequently counted, and the microbe count per ml is determined compared with the negative control (12% of ethanol in water).
(§4) Procedure in Accordance with Example 1
(§5) The concentrations indicated are the final use concentrations. In order to prepare the stock solution, double the final concentration are prepared in the solvent indicated. This is subsequently diluted 1:2 with the corresponding microbe suspension. In the case of Aspergillus brasiliensis, the microbe count determination is exceptionally carried out after 48 h, in the case of Malassezia furfur after 72 h.

[1] = Measurement of density and viscosities (Ubbelohde viscometer) to estimate spreadability; format: physicochemical
Protocol: After measurement of the densities and kinematic viscosities using an Ubbelohde viscometer, the following dynamic viscosities arise:
Kinematic viscosity of I-1: 15.2 mm^2/s Density of I-1: 0.9897 g/cm^3; 25° C.
Dynamic viscosity of I-1=kinematic viscosity of I-1×density I-1=15.0 [mPas]
Since spreadabilities and viscosities of cosmetic emollients correlate well, good spreadabilities can be concluded from the viscosities determined.

Malassezia furfur = assay: Antimicrobial action, microbe count (procedure as Example 1, count after 72 h); format: cell-based; conditions: 1.0% in H2O
Protocol: as §1, §2, §3, §4, §5

Salmonella enterica = assay: Antimicrobial action, microbe count (procedure as Example 1); format: cell-based; conditions: for Δlog: t24 h vs t0
Protocol: as §1, §2, §3, §4, §5

Propionibacterium acnes = assay: as above; format: cell-based; conditions: for Δlog: t24 h vs t0
Protocol: as §1, §2, §3, §4, §5

Candida albicans = assay: as above; format: cell-based; conditions: for Δlog: t24 h vs t0
Protocol: as §1, §2, §3, §4, §5

Staphylococcus aureus = assay: as above; format: cell-based; conditions: 1.0% in H2O(12% of ethanol)
Protocol: as §1, §2, §3, §4, §5

Corynebacterium xerosis = assay: as above; format: cell-based; conditions: 0.5% in H2O
Protocol: as §1, §2, §3, §4, §5

Serratia marcescens = assay: as above; format: cell-based; conditions: for Δlog: t24 h vs t0
Protocol: as §1, §2, §3, §4, §5

Aspergillus brasiliensis = assay: Antimicrobial action, microbe count (procedure as Example 1, count after 48 h); format: cell-based; conditions: for Δlog: count after 48 h vs t0; for Microbe count t24 h: count after 48 h
Protocol: as §1, §2, §3, §4, §5

[2] = test system: Staphylococcus epidermidis (ATCC 12228); assay: Antimicrobial action, microbe count after incubation in CASO broth; format: cell-based; conditions: sample 1.0% in water/ethanol (12% of ethanol), 500 µl sample + 500 µl suspension; 35° C., 24 h or 48 h; initial count 5.8 × 10^4
Protocol: as §1, §2, §3

[3] = 0.25% in H2O, count t0 3.2 × 10^5
[4] = 0.25% in H2O, count t0 1.3 × 10^6

For `OCCOC1CCCCC1` [Substance I-1], which “Microbe count t24 h” value (Echerichia coli; [3]) is on record?
Its value is 8.0 × 10^8.

And the Δlog (Echerichia coli; 0.25% in H2O)?
The Δlog was “+3.40”.

And the “Microbe count t24 h” value (Echerichia coli; 0.8% in H2O(12% of ethanol), count t0 6.3 × 10^4)?
The value was 0.

And the Δlog (Echerichia coli; 0.8% in H2O(12% of ethanol))?
Its Δlog is −4.80.

And the Density ([1]; 25° C.)?
The Density was 0.9897 g/mL.

What about the Kinematic viscosity ([1]; Ubbelohde viscometer) of the same molecule?
Its Kinematic viscosity is 15.2 mm^2/s.

What about the Dynamic viscosity ([1]; kinematic viscosity × density) of the same molecule?
Its Dynamic viscosity is 15.0 mPas.

What about the Δlog (Malassezia furfur; count after 72 h vs t0) of the same molecule?
Its Δlog is −2.60.

What about the “Microbe count t24 h” value (Malassezia furfur; count t0 4.0 × 10^2, count after 72 h) of the same molecule?
The value was 0.

What about the “Microbe count t24 h” value (Salmonella enterica; 0.5% in H2O, count t0 1.0 × 10^6) of the same molecule?
Its value is 9.0 × 10^3.

And the Δlog (Salmonella enterica; 0.5% in H2O)?
The Δlog was −2.05.

What about the “Microbe count t24 h” value (Salmonella enterica; 0.8% in H2O(12% of ethanol), count t0 1.3 × 10^4) of the same molecule?
Its value is 0.

What about the Δlog (Salmonella enterica; 0.8% in H2O(12% of ethanol)) of the same molecule?
Its Δlog is −4.11.

What about the “Microbe count t24 h” value (Propionibacterium acnes; 1.0% in H2O, count t0 7.8 × 10^5) of the same molecule?
The value was 7.0 × 10^5.

And the Δlog (Propionibacterium acnes; 1.0% in H2O)?
The Δlog was −0.05.

And the “Microbe count t24 h” value (Candida albicans; [4])?
The value was 4.3 × 10^6.

And the Δlog (Candida albicans; 0.25% in H2O)?
The Δlog was “+0.53”.

What about the “Microbe count t24 h” value (Candida albicans; 1.0% in H2O(12% of ethanol), count t0 6.0 × 10^3) of the same molecule?
The value was 0.

What about the Δlog (Candida albicans; 1.0% in H2O(12% of ethanol)) of the same molecule?
The Δlog was −3.78.

What about the “Microbe count t24 h” value (Staphylococcus aureus; count t0 7.2 × 10^4) of the same molecule?
The value was 2.5 × 10^2.

And the Δlog (Staphylococcus aureus; t24 h vs t0)?
The Δlog was −2.46.

And the “Microbe count t24 h” value (Corynebacterium xerosis; count t0 1.0 × 10^6)?
Its value is 2.0 × 10^6.

What about the Δlog (Corynebacterium xerosis; t24 h vs t0) of the same molecule?
Its Δlog is “+0.30”.

And the “Microbe count t24 h” value (Serratia marcescens; 0.5% in H2O, count t0 2.9 × 10^5)?
The value was 1.7 × 10^4.

And the Δlog (Serratia marcescens; 0.5% in H2O)?
Its Δlog is −1.23.

And the “Microbe count t24 h” value (Serratia marcescens; 1.0% in H2O, count t0 2.5 × 10^5)?
The value was 0.

And the Δlog (Serratia marcescens; 1.0% in H2O)?
Its Δlog is −5.40.

And the Δlog (Aspergillus brasiliensis; 1.0% in H2O(12% of ethanol))?
Its Δlog is −0.90.

And the “Microbe count t24 h” value (Aspergillus brasiliensis; 1.0% in H2O(12% of ethanol), count t0 8.0 × 10^2)?
Its value is 1.0 × 10^2.

Which “Microbe count t24 h” value (Echerichia coli; [3]) does the source give for `CC(O)COC1CCCCC1` (stereo not shown) [Substance I-9] here?
The value was 4.30 × 10^8.

And the Δlog (Echerichia coli; 0.25% in H2O)?
The Δlog was “+3.13”.

What about the “Microbe count t24 h” value (Candida albicans; [4]) of the same molecule?
Its value is 1.4 × 10^6.

What about the Δlog (Candida albicans; 0.25% in H2O) of the same molecule?
Its Δlog is “+0.04”.

Which Final microbe count [2] does the source give for `COC1CCC(O)CC1` (stereo not shown) [Substance I-2] here?
Its Final microbe count is 4.0 × 10^4 CFU/ml.

For `OCCOC1CCC(OCCO)CC1` (stereo not shown) [Substance I-3, 2-[4-(2-hydroxyethoxy)cyclohexyloxy]ethanol], which “Microbe count t24 h” value (Propionibacterium acnes; 0.5% in H2O, count t0 3.4 × 10^5) is on record?
The value was 4.0 × 10^7.

What about the Δlog (Propionibacterium acnes; 0.5% in H2O) of the same molecule?
The Δlog was “+2.07”.

And the “Microbe count t24 h” value (Aspergillus brasiliensis; 0.5% in H2O, count t0 2.8 × 10^4)?
The value was 1.6 × 10^4.

And the Δlog (Aspergillus brasiliensis; 0.5% in H2O, t0 2.8 × 10^4)?
The Δlog was −0.24.

And the Δlog (Aspergillus brasiliensis; 1.0% in H2O)?
Its Δlog is −1.30.

What about the “Microbe count t24 h” value (Aspergillus brasiliensis; 1.0% in H2O, count t0 2.8 × 10^4) of the same molecule?
Its value is 1.4 × 10^3.
